The nature of data set [1]: Phase I studies: aplidine myotoxicity and L-carnitine as myoprotector. It is filed as in vivo, human. As to conditions: in vivo. As to the method: More generally, the invention involves the use of a muscle protector in conjunction with aplidine therapy. We have found in particular that carnitine is beneficial in treating myotoxicity that is associated with chemotherapy with the experimental drug aplidine. […] When L-carnitine 4.5 g/day was added to the therapy (at doses of 1.5 g three times daily), or 0.1 mg/kg (at doses of 0.033 mg 3 times daily) patients were able to tolerate doses of aplidine up to 6000 mcg/m 2 every second week. […] Therefore, muscle protectors such as L-carnitine is a useful myoprotector for patients being treated with aplidine or an aplidine analogue.
L-carnitine at a dose of 1.5 grams 3 times per day or 0.033 g/kg 3 times per day was started in all patients of study APL-A-003-98.

For data set [2], the system named is panel of 25 human tumor cell lines. Briefly: tumor protection by L-carnitine in panel of tumor cell lines. In kind it is cell-based. As to conditions: initial results. As to the method: The possibility of tumor protection by L-carnitine was evaluated using a panel of 25 human tumor cell lines.

Molecules are shown by their SMILES.

For `C[N+](C)(C)C[C@H](O)CC(=O)[O-]` [L-carnitine, reference compound], in data set [1] (human), the “increase of aplidine RD by L-carnitine prophylaxis” value turned out to be 40%; the “only toxicity reported for L-carnitine” value was “grade 1 abdominal discomfort and diarrhea”. Besides, in data set [1], the “L-carnitine dose below which it should not be decreased” value is listed as no less than 3.5 grams per day, the “duration of beneficial effect (normal creatine kinase values)” value is recorded as “at least 13 weeks”, the “outcome in 11 patients receiving L-carnitine prophylaxis from the beginning” value is “just an asymptomatic G1 increase in CK” and the “tolerability of L-carnitine” value was “well tolerated”. Also, the “effect of L-carnitine on the antitumor activity of aplidine” value in data set [2] was “lack of effect”.

(Values after patent publication US7507766B2, “Treatment of cancers” (Pharma Mar, S.A., priority 2000, dated 2009).)
